Test results reported in the METLIN SMRT retention time set (Domingo-Almenara et al. 2019).

Assay: gradient 5% acetonitrile 3 min, to 50% in 2 min, to 85% in 15 min, held 3 min, 100 µL/min
Settings: column: Zorbax Extend-C18 2.1 x 50 mm; eluents: water / acetonitrile, 0.1% formic acid
How it was run: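 Retention times of pure standards were taken from adduct peaks that were selected by computer and manually inspected. Over 3 months, mixtures of ~100 molecules were run by HPLC–quadrupole time-of-flight mass spectrometry in positive and negative ionization mode. The Zorbax Extend-C18 column (2.1 × 50 mm, 1.8 μm) ran at 100 μL/min in water and acetonitrile, each containing 0.1% formic acid, with 40 μL dead volume and 900 μL dwell volume.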

For Cc1nc(N2CCCC(C(=O)NCCc3ccc(S(N)(=O)=O)cc3)C2)c2c(C)c(C)oc2n1 (stereo unspecified), which RP-LC retention time is on record?
The RP-LC retention time was 680 s.

With CSc1ccc(-c2noc(-c3nnn4c3COC(c3ccc(C)cc3C)C4)n2)cc1 (stereo unspecified) as the compound, how does the RP-LC retention time read?
The RP-LC retention time was 1360 s.

Which RP-LC retention time does the source give for CN1CCN(CCNC(=O)CCc2c(-c3ccc(Br)cc3)nc3ccccn23)CC1 here?
The RP-LC retention time was 543 s.

Which RP-LC retention time does the source give for Cc1ccc(CNC(=O)Cn2c(=O)c3nnc(C)n3c3ncccc32)cc1 here?
The RP-LC retention time was 692 s.

With CC(=O)Oc1cccc(C2C3=C(CC(C)(C)CC3=O)Nc3ccccc3N2C(C)=O)c1 (stereo unspecified) as the compound, how does the RP-LC retention time read?
The RP-LC retention time was 735 s.

For O=C(Nc1ccc(F)cc1)C1CCCN(c2ncnc3c2nc2n3CCCCC2)C1 (stereo unspecified), which RP-LC retention time is on record?
Its RP-LC retention time is 803 s.

For CC(C)NC(=O)N1CCOc2ccccc21, which RP-LC retention time is on record?
The RP-LC retention time was 774 s.

Which RP-LC retention time does the source give for CCNC(=O)C1CCCN(c2nc3ncn(CC(=O)Nc4ccc(C(C)C)cc4)c(=O)c3s2)C1 (stereo unspecified) here?
Its RP-LC retention time is 759 s.

Which RP-LC retention time does the source give for CN1C(=O)c2cc(C(=O)N3CCCCCC3)nn2CC1(C)C(=O)NC1CCCCCC1 (stereo unspecified) here?
The RP-LC retention time was 802 s.

For Cc1nc2ccn(Cc3cccnc3)c(=O)c2cc1C(=O)NCCc1c[nH]c2ccccc12, which RP-LC retention time is on record?
The RP-LC retention time was 626 s.

With O=C(C1CCN(S(=O)(=O)c2cc(-c3noc(C4CC4)n3)cs2)CC1)N1CCCCC1 as the compound, how does the RP-LC retention time read?
The RP-LC retention time was 931 s.

For Cc1ccc(NC(=O)N2CCCC2C(=O)NC(C)C)cc1 (stereo unspecified), which RP-LC retention time is on record?
The RP-LC retention time was 694 s.

With O=C(c1cccc(-n2cnnn2)c1)N1CC(c2nc(-c3ccccn3)no2)C1 as the compound, how does the RP-LC retention time read?
The RP-LC retention time was 648 s.

For O=C1CC(CNS(=O)(=O)c2cccc(C(F)(F)F)c2)CN1c1ccc(Cl)cc1 (stereo unspecified), which RP-LC retention time is on record?
The RP-LC retention time was 893 s.

For O=C(CN1C(=O)CCCc2cc(S(=O)(=O)N3CCCCCC3)ccc21)Nc1ccccc1F, which RP-LC retention time is on record?
The RP-LC retention time was 953 s.

Which RP-LC retention time does the source give for CCOc1cc(-c2ccccc2)nc2ccc(NS(=O)(=O)c3ccc(OC)c(OC)c3)cc12 here?
Its RP-LC retention time is 730 s.

Which RP-LC retention time does the source give for COc1ccccc1-n1ccnc(NC(=O)Nc2ccc(F)cc2)c1=O here?
The RP-LC retention time was 896 s.

Which RP-LC retention time does the source give for COCCCNc1c(-c2cccc(F)c2)nc2sc(C(=O)N(C)C)c(C)n12 here?
Its RP-LC retention time is 776 s.

With O=C(c1cccn1-c1nnc(N2CCCC2)s1)N1CCN(c2ccccn2)CC1 as the compound, how does the RP-LC retention time read?
Its RP-LC retention time is 598 s.

Which RP-LC retention time does the source give for CN(CCNC(=O)c1ccc(CN2C(=O)CCn3nccc32)cc1)C1CCCCC1 here?
The RP-LC retention time was 599 s.

With Cc1ccc(CNC(=O)C2CCN(S(=O)(=O)c3cc(-c4noc(C)n4)cs3)CC2)cc1 as the compound, how does the RP-LC retention time read?
Its RP-LC retention time is 702 s.

For O=C(NC1CC1)c1cnn2c(-c3ccccn3)ccnc12, which RP-LC retention time is on record?
The RP-LC retention time was 687 s.

With CCCNC(=O)C1CCCN(c2nc3ncn(CC(=O)Nc4ccc(F)cc4F)c(=O)c3s2)C1 (stereo unspecified) as the compound, how does the RP-LC retention time read?
The RP-LC retention time was 684 s.

Which RP-LC retention time does the source give for O=C(c1nccc2ccccc12)N1C[C@@H](CO)[C@H](c2ccccn2)C1 here?
Its RP-LC retention time is 578 s.

For COc1cccc(Cn2nc3ccc(S(=O)(=O)N4CCCCCC4)cn3c2=O)c1, which RP-LC retention time is on record?
Its RP-LC retention time is 946 s.

Which RP-LC retention time does the source give for COc1ccc(C(=O)NC2CCN(C(=O)c3cc(-c4ccc(OC)cc4)n[nH]3)CC2)cc1 here?
The RP-LC retention time was 729 s.

For O=c1n(Cc2cccc(Cl)c2)nc2ccc(S(=O)(=O)N3CCCCC3)cn12, which RP-LC retention time is on record?
Its RP-LC retention time is 989 s.

With COc1cccc(C2=NC3(CCN(C(C)=O)CC3)NC(c3cc(Br)ccc3O)C2)c1 (stereo unspecified) as the compound, how does the RP-LC retention time read?
Its RP-LC retention time is 694 s.

With CCc1noc(CN2N=C(C(=O)N3CCC(C)CC3)S(=O)(=O)c3ccccc32)n1 as the compound, how does the RP-LC retention time read?
Its RP-LC retention time is 886 s.

With CCC(C(=O)Nc1ccc(-c2nc(Cn3nc(C)cc3C)c(C)o2)cc1)c1ccccc1 (stereo unspecified) as the compound, how does the RP-LC retention time read?
The RP-LC retention time was 1050 s.

With O=C1NCCCn2cc(S(=O)(=O)Nc3ccc(F)cc3Cl)cc21 as the compound, how does the RP-LC retention time read?
The RP-LC retention time was 650 s.

For O=C(NCc1cccc(F)c1)N1CCCC(Cn2cnc3cccnc32)C1 (stereo unspecified), which RP-LC retention time is on record?
Its RP-LC retention time is 652 s.

Which RP-LC retention time does the source give for NC(=O)COC1CCC12CCN(C(=O)c1ccc3c(c1)OCO3)CC2 (stereo unspecified) here?
Its RP-LC retention time is 662 s.

With O=C1NCC2(CCN(CCc3ccccc3)CC2)O1 as the compound, how does the RP-LC retention time read?
Its RP-LC retention time is 579 s.

With COc1ccc(-c2cn3cccnc3n2)cc1NC(=O)c1cccc(OC)c1OC as the compound, how does the RP-LC retention time read?
The RP-LC retention time was 718 s.

For CCCNC(=O)c1cc(N2CCCC2)n2nccc2n1, which RP-LC retention time is on record?
The RP-LC retention time was 792 s.
